Experimental data published in ChEMBL document CHEMBL5291721, “A preclinical secondary pharmacology resource illuminates target-adverse drug reaction associations of marketed drugs” (Nat Commun, 2023).

Experiments:
[1] = molecular target: T1, Alpha-2B adrenergic receptor (Homo sapiens, UniProt P18089)
T1 sequence (P18089 whole entry): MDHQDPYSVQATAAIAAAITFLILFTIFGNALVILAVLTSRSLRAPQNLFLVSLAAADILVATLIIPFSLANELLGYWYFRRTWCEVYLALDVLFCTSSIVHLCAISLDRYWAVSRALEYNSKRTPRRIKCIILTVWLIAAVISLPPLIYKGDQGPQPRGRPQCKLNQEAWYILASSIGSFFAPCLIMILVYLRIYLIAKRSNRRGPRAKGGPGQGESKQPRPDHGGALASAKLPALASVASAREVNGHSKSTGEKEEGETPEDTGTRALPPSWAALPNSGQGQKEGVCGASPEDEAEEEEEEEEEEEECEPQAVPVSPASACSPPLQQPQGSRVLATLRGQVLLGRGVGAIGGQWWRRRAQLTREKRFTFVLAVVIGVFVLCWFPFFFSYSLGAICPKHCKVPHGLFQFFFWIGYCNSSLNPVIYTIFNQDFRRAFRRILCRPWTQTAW

[2] = molecular target: Beta-1 adrenergic receptor (Homo sapiens, UniProt P08588); type: functional
[3] = molecular target: Beta-2 adrenergic receptor (Homo sapiens, UniProt P07550)
[4] = molecular target: T2, Neuropeptide Y receptor type 1 (Homo sapiens, UniProt P25929)
T2 sequence (P25929 whole entry): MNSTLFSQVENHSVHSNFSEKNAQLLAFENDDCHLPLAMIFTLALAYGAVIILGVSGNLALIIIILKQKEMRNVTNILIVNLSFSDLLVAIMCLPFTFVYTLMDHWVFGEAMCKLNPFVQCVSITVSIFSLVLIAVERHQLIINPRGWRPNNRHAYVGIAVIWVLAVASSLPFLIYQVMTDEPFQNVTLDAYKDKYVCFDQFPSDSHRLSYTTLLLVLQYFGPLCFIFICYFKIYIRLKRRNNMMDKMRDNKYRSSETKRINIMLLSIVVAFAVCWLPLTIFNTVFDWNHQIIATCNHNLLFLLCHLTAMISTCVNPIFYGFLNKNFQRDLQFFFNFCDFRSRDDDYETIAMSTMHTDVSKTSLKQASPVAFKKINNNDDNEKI

Thromboxane A2 receptor [5] = molecular target: T3, Thromboxane A2 receptor (Homo sapiens, UniProt P21731)
T3 sequence (P21731 whole entry): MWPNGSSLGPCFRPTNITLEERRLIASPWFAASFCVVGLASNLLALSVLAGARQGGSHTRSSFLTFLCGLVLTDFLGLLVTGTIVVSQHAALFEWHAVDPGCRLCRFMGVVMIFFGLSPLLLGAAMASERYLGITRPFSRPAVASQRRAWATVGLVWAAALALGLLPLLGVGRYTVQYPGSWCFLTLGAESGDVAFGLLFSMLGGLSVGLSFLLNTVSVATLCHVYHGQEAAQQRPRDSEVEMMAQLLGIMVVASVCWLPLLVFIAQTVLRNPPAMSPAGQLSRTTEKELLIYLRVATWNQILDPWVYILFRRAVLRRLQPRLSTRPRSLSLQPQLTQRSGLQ

[6] = molecular target: T4, Alpha-1A adrenergic receptor (Homo sapiens, UniProt P35348)
T4 sequence (P35348 whole entry): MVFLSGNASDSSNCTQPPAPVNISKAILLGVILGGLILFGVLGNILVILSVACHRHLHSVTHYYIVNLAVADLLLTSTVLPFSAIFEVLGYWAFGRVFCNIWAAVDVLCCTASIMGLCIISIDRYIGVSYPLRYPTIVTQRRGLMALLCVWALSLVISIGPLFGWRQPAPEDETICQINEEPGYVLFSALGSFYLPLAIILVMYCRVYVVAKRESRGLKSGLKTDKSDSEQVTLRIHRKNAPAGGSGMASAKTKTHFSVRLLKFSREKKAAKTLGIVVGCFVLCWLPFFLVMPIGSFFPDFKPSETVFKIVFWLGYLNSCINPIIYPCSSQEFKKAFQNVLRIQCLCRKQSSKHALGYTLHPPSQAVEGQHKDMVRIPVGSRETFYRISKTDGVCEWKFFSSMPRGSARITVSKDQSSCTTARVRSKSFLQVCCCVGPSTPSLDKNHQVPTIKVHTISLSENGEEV

Melanocortin receptor 4 = Melanocortin receptor 4 (Homo sapiens, UniProt P32245)
Acetylcholinesterase = Acetylcholinesterase (Homo sapiens, UniProt P22303); type: functional
Prothrombin = Prothrombin (Homo sapiens, UniProt P00734); type: functional
[7] = molecular target: T5, Amine oxidase [flavin-containing] A (Homo sapiens, UniProt P21397); type: functional
T5 sequence (P21397 whole entry): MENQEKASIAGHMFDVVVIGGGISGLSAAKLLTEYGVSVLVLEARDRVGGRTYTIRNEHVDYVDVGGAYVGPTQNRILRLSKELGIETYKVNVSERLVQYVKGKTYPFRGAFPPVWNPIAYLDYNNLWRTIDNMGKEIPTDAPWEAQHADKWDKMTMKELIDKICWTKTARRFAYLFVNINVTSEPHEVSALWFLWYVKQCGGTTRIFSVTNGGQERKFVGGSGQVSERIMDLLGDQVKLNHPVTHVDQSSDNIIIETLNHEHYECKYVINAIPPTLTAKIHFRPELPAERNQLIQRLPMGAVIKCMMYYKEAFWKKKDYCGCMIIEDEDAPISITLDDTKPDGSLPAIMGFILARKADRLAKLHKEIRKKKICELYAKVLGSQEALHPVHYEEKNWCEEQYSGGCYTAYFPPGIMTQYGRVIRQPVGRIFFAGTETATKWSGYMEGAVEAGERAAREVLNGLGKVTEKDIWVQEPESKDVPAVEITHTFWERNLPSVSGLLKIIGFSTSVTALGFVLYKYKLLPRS

[8] = molecular target: cGMP-inhibited 3',5'-cyclic phosphodiesterase 3A (Homo sapiens, UniProt Q14432); type: functional
[9] = molecular target: Sodium-dependent noradrenaline transporter (Homo sapiens, UniProt P23975)
Thromboxane A2 receptor [10] = molecular target: T3, Thromboxane A2 receptor; type: functional, cell-based
Further: assay procedure not described here.

Chain of Melanocortin receptor 4 (P32245 whole entry): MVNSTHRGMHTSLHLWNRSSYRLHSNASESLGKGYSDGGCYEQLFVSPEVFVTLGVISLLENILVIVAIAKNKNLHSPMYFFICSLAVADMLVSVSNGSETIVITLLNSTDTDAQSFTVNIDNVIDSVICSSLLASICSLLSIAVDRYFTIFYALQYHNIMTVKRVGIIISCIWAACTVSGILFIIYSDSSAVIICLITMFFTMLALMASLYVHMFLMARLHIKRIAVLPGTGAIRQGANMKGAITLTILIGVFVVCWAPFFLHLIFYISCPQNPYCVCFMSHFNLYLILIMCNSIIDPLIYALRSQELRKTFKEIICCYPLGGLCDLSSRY
Chain of cGMP-inhibited 3',5'-cyclic phosphodiesterase 3A (Q14432 whole entry): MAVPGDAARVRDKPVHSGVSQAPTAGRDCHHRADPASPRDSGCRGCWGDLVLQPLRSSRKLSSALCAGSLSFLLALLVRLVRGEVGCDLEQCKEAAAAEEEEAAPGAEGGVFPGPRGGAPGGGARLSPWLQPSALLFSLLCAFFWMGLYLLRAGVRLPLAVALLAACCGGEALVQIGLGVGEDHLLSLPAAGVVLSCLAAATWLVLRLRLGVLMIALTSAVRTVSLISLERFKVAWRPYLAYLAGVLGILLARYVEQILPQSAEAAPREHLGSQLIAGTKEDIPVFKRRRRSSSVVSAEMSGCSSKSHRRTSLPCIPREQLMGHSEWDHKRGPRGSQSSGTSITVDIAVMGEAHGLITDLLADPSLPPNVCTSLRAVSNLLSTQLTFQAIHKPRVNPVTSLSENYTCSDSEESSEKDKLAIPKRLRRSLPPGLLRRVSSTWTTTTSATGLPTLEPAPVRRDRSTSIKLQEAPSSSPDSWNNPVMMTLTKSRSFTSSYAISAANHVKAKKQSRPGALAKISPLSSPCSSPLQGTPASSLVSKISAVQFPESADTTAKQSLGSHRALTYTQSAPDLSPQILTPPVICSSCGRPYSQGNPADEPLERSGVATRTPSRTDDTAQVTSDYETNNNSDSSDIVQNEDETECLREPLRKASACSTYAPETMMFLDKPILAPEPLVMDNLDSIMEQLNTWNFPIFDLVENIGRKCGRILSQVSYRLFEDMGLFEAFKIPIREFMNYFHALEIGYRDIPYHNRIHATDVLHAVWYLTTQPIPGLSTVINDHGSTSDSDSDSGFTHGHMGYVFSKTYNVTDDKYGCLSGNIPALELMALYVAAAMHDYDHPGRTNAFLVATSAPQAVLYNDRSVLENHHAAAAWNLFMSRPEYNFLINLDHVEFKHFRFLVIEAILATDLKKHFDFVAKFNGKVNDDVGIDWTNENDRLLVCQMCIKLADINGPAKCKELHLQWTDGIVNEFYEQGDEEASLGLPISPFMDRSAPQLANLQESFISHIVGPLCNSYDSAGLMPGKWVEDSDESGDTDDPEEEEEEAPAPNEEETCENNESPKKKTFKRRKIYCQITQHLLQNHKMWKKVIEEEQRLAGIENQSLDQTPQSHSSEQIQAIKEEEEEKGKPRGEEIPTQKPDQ
Chain of Sodium-dependent noradrenaline transporter (P23975 whole entry): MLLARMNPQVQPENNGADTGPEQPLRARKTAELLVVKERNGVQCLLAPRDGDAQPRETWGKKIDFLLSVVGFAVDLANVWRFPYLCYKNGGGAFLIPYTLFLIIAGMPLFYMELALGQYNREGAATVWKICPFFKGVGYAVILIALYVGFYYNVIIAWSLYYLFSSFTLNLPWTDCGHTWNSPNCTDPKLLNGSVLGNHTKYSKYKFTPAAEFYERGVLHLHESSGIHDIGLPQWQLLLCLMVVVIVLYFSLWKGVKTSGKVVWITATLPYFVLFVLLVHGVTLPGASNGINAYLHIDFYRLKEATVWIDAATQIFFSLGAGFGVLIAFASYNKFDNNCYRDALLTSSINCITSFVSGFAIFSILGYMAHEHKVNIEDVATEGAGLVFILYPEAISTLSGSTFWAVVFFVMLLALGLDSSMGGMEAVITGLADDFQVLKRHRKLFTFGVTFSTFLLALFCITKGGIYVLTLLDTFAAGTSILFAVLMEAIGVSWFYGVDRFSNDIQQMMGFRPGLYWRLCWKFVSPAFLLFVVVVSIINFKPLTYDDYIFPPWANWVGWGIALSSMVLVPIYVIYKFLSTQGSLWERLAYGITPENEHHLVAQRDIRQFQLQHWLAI
Chain of Beta-2 adrenergic receptor (P07550 whole entry): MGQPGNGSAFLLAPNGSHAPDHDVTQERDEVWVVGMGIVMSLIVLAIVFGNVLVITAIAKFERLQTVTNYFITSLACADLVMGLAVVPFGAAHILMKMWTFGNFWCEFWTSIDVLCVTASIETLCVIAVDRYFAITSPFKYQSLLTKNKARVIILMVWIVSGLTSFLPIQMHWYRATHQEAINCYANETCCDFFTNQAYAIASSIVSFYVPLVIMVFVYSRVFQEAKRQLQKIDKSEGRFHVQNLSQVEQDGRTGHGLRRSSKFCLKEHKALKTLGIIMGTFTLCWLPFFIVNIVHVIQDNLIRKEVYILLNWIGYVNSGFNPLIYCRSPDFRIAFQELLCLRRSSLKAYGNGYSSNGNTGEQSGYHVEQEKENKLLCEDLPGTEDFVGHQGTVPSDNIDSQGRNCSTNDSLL
Chain of Acetylcholinesterase (P22303 whole entry): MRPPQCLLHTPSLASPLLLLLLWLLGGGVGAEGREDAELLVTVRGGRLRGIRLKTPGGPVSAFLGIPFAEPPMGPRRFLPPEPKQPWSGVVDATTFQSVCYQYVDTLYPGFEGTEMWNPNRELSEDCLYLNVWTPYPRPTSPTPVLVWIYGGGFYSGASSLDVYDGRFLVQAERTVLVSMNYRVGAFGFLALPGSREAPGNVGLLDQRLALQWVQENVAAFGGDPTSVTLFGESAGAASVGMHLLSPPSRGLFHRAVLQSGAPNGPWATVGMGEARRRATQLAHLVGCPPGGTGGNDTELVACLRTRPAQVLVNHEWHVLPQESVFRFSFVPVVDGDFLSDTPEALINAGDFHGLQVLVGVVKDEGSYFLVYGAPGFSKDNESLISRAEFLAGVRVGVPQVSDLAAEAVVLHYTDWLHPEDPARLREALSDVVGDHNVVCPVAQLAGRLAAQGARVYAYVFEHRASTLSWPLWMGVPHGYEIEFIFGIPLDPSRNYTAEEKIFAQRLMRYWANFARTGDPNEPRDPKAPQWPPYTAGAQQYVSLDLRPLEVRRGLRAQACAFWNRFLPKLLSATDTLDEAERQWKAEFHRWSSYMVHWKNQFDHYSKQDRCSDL
Chain of Beta-1 adrenergic receptor (P08588 whole entry): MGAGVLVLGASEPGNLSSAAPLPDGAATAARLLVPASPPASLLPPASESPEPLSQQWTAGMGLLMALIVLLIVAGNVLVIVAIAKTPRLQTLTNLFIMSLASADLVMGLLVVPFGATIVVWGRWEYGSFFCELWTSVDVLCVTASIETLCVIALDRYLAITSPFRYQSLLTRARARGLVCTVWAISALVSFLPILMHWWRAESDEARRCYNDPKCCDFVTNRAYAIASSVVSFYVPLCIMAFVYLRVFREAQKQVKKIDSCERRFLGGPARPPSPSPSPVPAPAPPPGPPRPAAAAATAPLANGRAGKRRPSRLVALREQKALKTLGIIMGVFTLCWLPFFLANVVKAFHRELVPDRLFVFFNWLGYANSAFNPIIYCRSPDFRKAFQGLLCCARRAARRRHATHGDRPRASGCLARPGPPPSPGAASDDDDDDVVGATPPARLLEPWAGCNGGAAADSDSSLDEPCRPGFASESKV

Compound	AC50 [1] [µM]	AC50 [2] [µM]	AC50 [3] [µM]	AC50 [4] [µM]	AC50 (Thromboxane A2 receptor [5]) [µM]	AC50 [6] [µM]	AC50 (Melanocortin receptor 4) [µM]	AC50 (Acetylcholinesterase) [µM]	AC50 (Prothrombin) [µM]	AC50 [7] [µM]	AC50 [8] [µM]	AC50 [9] [µM]	AC50 (Thromboxane A2 receptor [10]) [µM]
COC(=O)N[C@H](C(=O)N1CCC[C@H]1c1nc(-c2ccc(-c3ccc(-c4c[nH]c([C@@H]5CCCN5C(=O)[C@@H](NC(=O)OC)C(C)C)n4)cc3)cc2)c[nH]1)C(C)C	> 30	> 30	> 30	> 30	> 30								
CC(N)Cc1ccccc1 (centres undefined) [AMPHETAMINE]		> 30		> 30	> 30	> 10	> 30						
COC(=O)N[C@H](C(=O)N[C@@H](Cc1ccccc1)[C@@H](O)CN(Cc1ccc(-c2ccccn2)cc1)NC(=O)[C@@H](NC(=O)OC)C(C)(C)C)C(C)(C)C [ATAZANAVIR]	> 10	> 10	> 10	> 30	> 30	> 10	> 30						
CC(C)NCC(O)COc1ccc(COCCOC(C)C)cc1 (centres undefined) [BISOPROLOL]	> 10			> 30	> 30	> 10	> 30						
COc1cc(Nc2c(C#N)cnc3cc(OCCCN4CCN(C)CC4)c(OC)cc23)c(Cl)cc1Cl [BOSUTINIB]	> 10	> 10	> 10	> 30	> 30		17.7	15.6	> 30	> 30	> 30	24.1	> 3
CN(C)CCCN1c2ccccc2CCc2ccc(Cl)cc21 [CLOMIPRAMINE]						0.0445		> 30		> 30			
O=C(O)c1cc(-c2ccc(F)cc2F)ccc1O [DIFLUNISAL]		> 10	> 10	> 10	> 10	> 30	> 10						
C#C[C@]1(O)CC[C@H]2[C@@H]3CCc4cc(O)ccc4[C@H]3CC[C@@]21C [ETHINYL ESTRADIOL]		> 10	> 10	> 30	15	> 10	> 30	> 30	> 30	> 30	> 30		> 10
CC(C)C(=O)Nc1ccc([N+](=O)[O-])c(C(F)(F)F)c1 [FLUTAMIDE]		> 10	> 10	> 30	> 30	> 30	> 30	> 30	> 30	> 30	> 30	> 30	18.4
COc1ccc2c(c1)C(=O)N(CCc1ccc(S(=O)(=O)NC(=O)NC3CCCCC3)cc1)C(=O)C2(C)C [GLIQUIDONE]	> 30	> 30	> 30	> 30	11								
NS(=O)(=O)c1cc2c(cc1Cl)NCNS2(=O)=O [HYDROCHLOROTHIAZIDE]		> 10	> 10	> 30	> 30	> 10	> 30						
NC[C@H]1O[C@H](O[C@H]2[C@H](O)[C@@H](O[C@H]3O[C@H](CO)[C@@H](O)[C@H](N)[C@H]3O)[C@H](N)C[C@@H]2N)[C@H](O)[C@@H](O)[C@@H]1O [KANAMYCIN]			> 10	> 10	> 10	> 30	> 10						
C[C@H]1C[C@@H]2[C@H]([C@@H](O)C[C@@]3(C)[C@H]2CC[C@]3(O)C(=O)CO)[C@@]2(C)C=CC(=O)C=C12 [METHYLPREDNISOLONE]		> 10	> 10	> 10	> 10	> 30	> 10						
CC(C)(C(=O)c1cccnc1)c1cccnc1 [METYRAPONE]		> 10	> 10	> 10	> 10	> 10	> 10						
COC(=O)C1=C(C)NC(C)=C(C(=O)OCC(C)C)C1c1ccccc1[N+](=O)[O-] (centres undefined) [NISOLDIPINE]		> 10	> 10	> 10	> 10	16	> 10						
NC1=NC(=O)C(c2ccccc2)O1 (centres undefined) [PEMOLINE]		> 10	> 10	> 30	> 30	> 10	> 30						
CCc1ccc(CCOc2ccc(CC3SC(=O)NC3=O)cc2)nc1 (centres undefined) [PIOGLITAZONE]		> 10	> 10	> 30	> 30	> 10	> 30	> 30	> 30	> 30	> 30	> 30	9.68
NC(=O)c1cnccn1 [PYRAZINAMIDE]		> 30	> 30	> 30	> 30	> 10	10.2	> 30	> 30	> 30	> 30	> 30	> 30
CNC(=O)c1cc(Oc2ccc(NC(=O)Nc3ccc(Cl)c(C(F)(F)F)c3)cc2)ccn1 [SORAFENIB]	> 30	28	> 30	> 30	16.3	> 10							
CC(C(=O)O)c1ccc(C(=O)c2cccs2)cc1 (centres undefined) [SUPROFEN]	> 10		> 10	> 10	> 10	> 10	> 10						
NC[C@H]1CC[C@H](C(=O)O)CC1 [TRANEXAMIC ACID]		> 10	> 10	> 10	> 10	> 30	> 10						
CCCS(=O)(=O)Nc1ccc(F)c(C(=O)c2c[nH]c3ncc(-c4ccc(Cl)cc4)cc23)c1F [VEMURAFENIB]	> 30	> 30	> 30	> 30	> 30								
OCc1cc([C@@H](O)CNCCCCCCOCCOCc2c(Cl)cccc2Cl)ccc1O [VILANTEROL]	> 30												
